# From patent US8790719B2, “Phytocannabinoids in the treatment of cancer” (GW Pharma Limited, priority 2010, dated 2014)
# Read-outs that look alike come from different tables or passages of the source.
# What was measured:
# [1] = target: T1, monoacylglyceride lipase (MAGL) (Homo sapiens, UniProt Q99685); assay: Inhibition of monoacylglyceride lipase (MAGL); type: biochemical
# T1 sequence (Q99685 1-303): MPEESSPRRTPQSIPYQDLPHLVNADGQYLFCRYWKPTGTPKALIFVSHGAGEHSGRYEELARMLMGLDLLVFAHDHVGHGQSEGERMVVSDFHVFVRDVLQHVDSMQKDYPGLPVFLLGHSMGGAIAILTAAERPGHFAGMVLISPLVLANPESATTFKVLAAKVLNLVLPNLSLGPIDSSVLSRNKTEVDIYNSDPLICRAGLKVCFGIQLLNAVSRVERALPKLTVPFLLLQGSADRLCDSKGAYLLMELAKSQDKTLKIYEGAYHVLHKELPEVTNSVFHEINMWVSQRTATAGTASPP
# Protocol: (§1) The effects of the phytocannabinoid BDS THCA, CBN, CBGA, CBDA and CBCV were tested to determine whether they were able to inhibit the MAGL and DAGL enzymes which are able to hydrolyse the endogenous cannabinoid 2-AG to arachidonic acid and glycerol. The results generated from these experiments are detailed in Table 5.1 below.
# For this experiment CBG BDS was used as this BDS was the easiest to purify and reconstitute. Four different test articles were used: CBG BDS, isolated CBG, CBG-free CBG BDS and CBG reconstituted BDS, whereby the CBG-free BDS (as prepared in Example 1) was spiked with isolated CBG at the same concentration of CBG as CBG BDS. Table 5.2 below details the data obtained.
# [2] = target: T2, diacylglyceride lipase (DAGL) (Homo sapiens, UniProt Q9Y4D2); assay: Inhibition of diacylglyceride lipase (DAGL); type: biochemical
# T2 sequence (Q9Y4D2 1-1042): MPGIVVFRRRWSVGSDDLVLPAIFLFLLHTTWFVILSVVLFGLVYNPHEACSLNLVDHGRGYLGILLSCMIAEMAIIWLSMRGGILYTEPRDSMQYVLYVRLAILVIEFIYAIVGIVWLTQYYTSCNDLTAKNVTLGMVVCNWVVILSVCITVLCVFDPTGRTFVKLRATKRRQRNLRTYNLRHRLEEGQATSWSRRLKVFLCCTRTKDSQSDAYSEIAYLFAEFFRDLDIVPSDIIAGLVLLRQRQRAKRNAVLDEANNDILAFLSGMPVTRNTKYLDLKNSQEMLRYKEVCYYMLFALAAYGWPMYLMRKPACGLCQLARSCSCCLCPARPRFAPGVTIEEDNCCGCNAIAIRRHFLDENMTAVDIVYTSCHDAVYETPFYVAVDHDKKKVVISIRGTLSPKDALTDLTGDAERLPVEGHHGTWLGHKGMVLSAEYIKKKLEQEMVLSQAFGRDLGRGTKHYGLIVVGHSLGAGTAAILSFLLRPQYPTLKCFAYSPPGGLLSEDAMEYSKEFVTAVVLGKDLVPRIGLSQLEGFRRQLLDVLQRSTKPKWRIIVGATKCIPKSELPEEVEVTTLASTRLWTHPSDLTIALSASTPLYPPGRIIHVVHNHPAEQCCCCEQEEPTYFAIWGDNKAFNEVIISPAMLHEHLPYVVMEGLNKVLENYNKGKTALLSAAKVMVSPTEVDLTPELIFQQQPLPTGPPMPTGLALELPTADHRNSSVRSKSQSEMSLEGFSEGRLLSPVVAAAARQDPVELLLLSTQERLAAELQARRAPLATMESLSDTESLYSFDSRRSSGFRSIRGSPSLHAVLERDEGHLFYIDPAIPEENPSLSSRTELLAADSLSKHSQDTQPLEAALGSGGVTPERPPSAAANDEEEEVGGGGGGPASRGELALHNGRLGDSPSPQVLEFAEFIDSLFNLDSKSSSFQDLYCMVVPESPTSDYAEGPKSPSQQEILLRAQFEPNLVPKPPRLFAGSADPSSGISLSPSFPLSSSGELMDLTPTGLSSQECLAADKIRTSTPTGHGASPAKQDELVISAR
# Protocol: as §1
# DU-145 = assay: Cell vitality (MTT assay), DU-145; type: cell-based; settings: Homo sapiens
# Protocol: (§2) Cells were seeded in presence of FBS in 6 wells multiwell with a density of 8×10^4 cells/well (DU-145) or 1×10^5 cells/well (LNCaP). After 7 hours, cells were starved of dihydrotestosterone (DHT) for 15 hours and treated with increased concentrations of compounds for 24 or 48 hours (absence of serum was maintained during the treatments). Cell viability was assessed by MTT staining.
# (§3) Phytocannabinoid BDS and their respective isolated phytocannabinoids were tested in both the hormone-insensitive (DU-145) prostate cancer cells and hormone-sensitive (LNCaP) prostate cancer cells. Three different phytocannabinoids were chosen for this experiment: CBG BDS and isolated compound, CBC BDS and isolated compound and CBD BDS and isolated compound.
# (§4) The experiment was repeated in the hormone-insensitive (DU-145) prostate cancer cells and hormone-sensitive (LNCaP) prostate cancer cells that had not been starved of DHT. Here just the CBG BDS and isolated CBG are illustrated in Table 7.2 below.
# LNCaP = assay: Cell vitality (MTT assay), LNCaP; type: cell-based; settings: Homo sapiens, read-out: IC50 on cell vitality
# Protocol: as §2, §3, §4
# [3] = tested on: Aberrant crypt focus (ACF), polyps and tumours; assay: Colon carcinogenesis in the mouse induced by azoxymethane; type: in vivo
# Excerpt: Aberrant crypt focus (ACF), polyps and tumours were induced in the mouse by the carcinogenic substance azoxymethane. The phytocannabinoids were given (i.p.) to the mice three times per week for a period of three months. The COX-2 inhibitor celecoxib was used as a positive control.
# Glioma cells = assay: Human glioma cell vitality (MTT assay); type: cell-based; settings: read-out: IC50 on glioma cell vitality
# Protocol: Cells were seeded in presence of FBS in 6 wells multiwell with a density of 8×10^4 cells/well. Glioma cells were treated with increased concentrations of compounds and cell viability was assessed by MTT staining.
# CBD BDS and isolated CBD, CBG and CBDV were tested.
# GPR55 = target: T3, GPR55 (Homo sapiens, UniProt Q9Y2T6); assay: ERK Alphascreen assay using GPR55-HEK cells; type: cell-based
# T3 construct: expressed in transfected cells; host or cells: HEK cells (GPR55-HEK)
# Excerpt: An ERK Alphascreen assay was undertaken using GPR55-HEK cells.
# [4] = tested on: MDA-MB-231 breast cancer cell line; assay: Cell viability of breast cancer cells (Alamar blue assay); type: cell-based; settings: 72 hours
# Protocol: Cells were seeded in presence of FBS in 6 wells multiwell and treated with increased concentrations of compounds for 72 hours. Cell viability was assessed by Alamar blue staining.
# Isolated phytocannabinoids were tested on the MDA-MB-231 breast cancer cell line in order to determine whether phytocannabinoids were effective in other types of cancer other than prostate cancer. The different isolated phytocannabinoids chosen for this experiment were: CBGA, CBDA, CBDV, CBD, THCV and THC.
# U87 glioma cells = assay: Viability of U87 glioma cells (MTT assay), THC, CBD, TMZ alone and combined; type: cell-based, human; settings: TMZ 100 μM alone, Table 12.2
# [5] = tested on: human glioma xenograft tumours; assay: Human glioma xenograft tumour volume; type: in vivo; design: unit not given here; settings: TMZ (100 μM) alone; Table 13.2
# Protocol: The phytocannabinoids were also tested with the TMZ as is detailed in Table 13.2 below.
# [6] = tested on: hormone-insensitive prostate cancer cell line (DU-145); assay: Chemioluminescence assay for caspase 3/7 release (apoptosis), DU-145; type: cell-based, human; settings: high dose (25 μM), FIG. 2
# Protocol: (§5) Two different concentrations of cannabinoids were tested; a low dose (10 μM) and a high dose (25 μM). The chemioluminescence that were recorded for each phytocannabinoid are detailed in FIG. 2.
# [7] = tested on: hormone-sensitive prostate cancer cell line (LNCaP); assay: Chemioluminescence assay for caspase 3/7 release (apoptosis), LNCaP; type: cell-based, human; settings: high dose (25 μM), FIG. 2
# Protocol: as §5
# [8] = tested on: hormone-sensitive prostate cancer cell line (LNCaP); assay: Subcutaneous xenograft model, hormone-sensitive prostate cancer (LNCaP); type: in vivo, mice; settings: taxotere 5 mg/kg i.v. weekly, alone
# Protocol: Cancer cells were maintained in vitro in an appropriate culture medium and were harvested, washed in culture medium and re-suspended in matrigel for ready for in vivo administration. 1-2×10^7 cells in 200 μl were injected subcutaneously into the left flank of mice. The mice were anaesthetised and a 0.5 mg 5-alpha-dihydrotestosterone pellet (21-day release) implanted subcutaneously into the scruff of each mouse to encourage tumour growth, and the wound was closed.
# Once the implanted tumour volume reached between 100-200 mm (2-3 weeks) mice were allocated to their treatment groups. Treatment commenced on Day 17. The phytocannabinoid BDS was administered i.p. once daily at doses of 1, 10 & 100 mg/kg cannabinoid BDS for a further 25 days.
# In a further experiment the chemotherapeutic agent taxotere (5 mg/kg) i.v. was administered weekly, alone or in combination with 100 mg/kg phytocannabinoid BDS.
# Mice were evaluated daily by an experienced technician for 4-5 weeks. Tumour dimensions were recorded at day 7 (calliper measurement of length and width and tumour cross-sectional area and volume calculated) and recorded three times weekly and body weight measured weekly.
# [9] = tested on: hormone sensitive LNCaP cells; settings: 24-48 hours; cited from earlier work
# [10] = at 50 μM, read-out: Max concentration tested (% inhibition), MAGL
# [11] = read-out: Max concentration tested (% inhibition), DAGL
# [12] = DU-145, 24 h, read-out: IC50 on cell vitality
# [13] = DU-145, 48 h, read-out: IC50 on cell vitality
# T3 sequence (Q9Y2T6 whole entry, species assumed): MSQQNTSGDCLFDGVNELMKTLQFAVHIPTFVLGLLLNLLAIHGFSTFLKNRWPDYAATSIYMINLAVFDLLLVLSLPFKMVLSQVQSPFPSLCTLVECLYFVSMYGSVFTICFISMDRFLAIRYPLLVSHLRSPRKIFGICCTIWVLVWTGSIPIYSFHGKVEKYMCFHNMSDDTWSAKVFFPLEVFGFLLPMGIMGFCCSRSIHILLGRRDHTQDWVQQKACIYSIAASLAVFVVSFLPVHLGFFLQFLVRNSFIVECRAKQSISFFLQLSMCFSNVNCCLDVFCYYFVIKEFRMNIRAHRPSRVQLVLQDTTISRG
structure (smiles),measurement,setting,value
"CCCCCc1cc(O)c2c(c1)OC(C)(C)c1ccc(C)cc1-2 [CBN, Cannabinol]",IC50,[1],> 50 µM
same,inhibition at 50 µM,[1]; [10],31.5%
same,inhibition at 50 µM,[2]; [11],26.9%
"CCCCCc1cc(O)c(C/C=C(\C)CCC=C(C)C)c(O)c1 [CBG, Cannabigerol]",EC50,"[1]; Table 5.2, BDS vs isolated vs reconstituted",195 µM
same,inhibition at 100 µM,"[1]; Table 5.2, read-out: Max tested on MAGL % inhibition",31.5%
same,IC50,DU-145; [12],11.8 µM
same,IC50,DU-145; [13],5.8 µM
same,IC50,"DU-145; DU-145, read-out: IC50 on cell vitality",> 25 µM
same,IC50,LNCaP; 24 h,10.8 µM
same,IC50,LNCaP; 48 h,8.1 µM
same,IC50,LNCaP,> 25 µM
same,protective effect against the experimentally induced colon carcinogenesis,[3]; FIG. 6 a),most statistically significant results
same,formation of ACF with 4 or more crypts,[3]; FIG. 6 b),no ACF with greater than 4 crypts
same,numbers of tumours per animal,"[3]; i.p. three times per week for three months; FIG. 5 c), FIG. 6 c)",no tumours were produced
same,IC50,Glioma cells,12.4 µM
"C=C(C)[C@@H]1CCC(C)=C[C@H]1c1c(O)cc(CCC)cc1O [CBDV, Cannabidivarin]",Effect at GPR55,GPR55,Antagonist
same,IC50,[4]; Homo sapiens,5 µM
same,IC50,Glioma cells,12.4 µM
"Cn1nnc2c(C(N)=O)ncn2c1=O [TMZ, temazolamide, reference compound]",Cell Viability (%),U87 glioma cells,82%
same,Tumour volume (increase from day 1),[5],4.1
"CCCc1cc2c(c(O)c1C(=O)O)[C@@H]1C=C(C)CC[C@H]1C(C)(C)O2 [THCVA, Tetrahydrocannabivarinic acid]","pro-apoptotic effect (chemioluminescence, caspase 3/7 release)",[6],highest pro-apoptotic effects
same,"pro-apoptotic effect (chemioluminescence, caspase 3/7 release)",[7],highest pro-apoptotic effect
CCCc1cc(O)c2c(c1)OC(C)(CCC=C(C)C)C=C2 (stereo not shown) [CBCV],IC50,"[1]; Table 5.1, read-out: MAG IC50",> 50 µM
same,inhibition at 50 µM,[1]; [10],4.8%
same,inhibition at 50 µM,[2]; [11],18.9%
CC(=O)O[C@@]12CO[C@@H]1C[C@H](O)[C@@]1(C)C(=O)[C@H](O)C3=C(C)[C@@H](OC(=O)[C@H](O)[C@@H](NC(=O)OC(C)(C)C)c4ccccc4)C[C@@](O)([C@@H](OC(=O)c4ccccc4)[C@H]21)C3(C)C [taxotere],growth rate and terminal tumour volume,[8],significantly inhibited both growth rate and terminal tumour volume
"CCCCCc1cc2c(c(O)c1C(=O)O)[C@@H]1C=C(C)CC[C@H]1C(C)(C)O2 [THCA, Tetrahydrocannabinolic acid]",IC50,[1],46 µM
same,inhibition at 100 µM,"[1]; read-out: Max concentration tested (% inhibition), MAGL",81.9%
same,inhibition at 50 µM,[2]; [11],79.3%
"C=C(C)[C@@H]1CCC(C)=C[C@H]1c1c(O)cc(CCCCC)c(C(=O)O)c1O [CBDA, Cannabidiolic acid]",Effect at GPR55,GPR55,Antagonist
same,IC50,"[1]; Table 5.1, read-out: MAG IC50",> 50 µM
same,inhibition at 50 µM,[1]; [10],18.5%
same,inhibition at 100 µM,"[2]; at 100 μM, read-out: Max concentration tested (% inhibition), DAGL",91.4%
same,IC50,[4]; Homo sapiens,3.9 µM
"CCCc1cc(O)c2c(c1)OC(C)(C)[C@@H]1CCC(C)=C[C@@H]21 [THCV, Tetrahydrocannabivarin]","pro-apoptotic effect (chemioluminescence, caspase 3/7 release)",[6],apotosis levels over that of the control
same,Effect at GPR55,GPR55,Antagonist (at low concentrations)
same,IC50,[4]; Homo sapiens,6.5 µM
"CCCCCc1cc(O)c2c(c1)OC(C)(CCC=C(C)C)C=C2 (stereo not shown) [CBC, Cannabichromene]",IC50,DU-145; [12],7.5 µM
same,IC50,DU-145; [13],5.6 µM
same,IC50,LNCaP; 24 h,10.8 µM
same,IC50,LNCaP; 48 h,6 µM
"CCCc1cc(O)c(C/C=C(\C)CCC=C(C)C)c(O)c1 [CBGV, Cannabigerol propyl variant]",Effect at GPR55,GPR55,Antagonist
CCCCCc1cc(O)c(C/C=C(\C)CCC=C(C)C)c(O)c1C(=O)O [CBGA],Effect at GPR55,GPR55,Inverse agonist
same,IC50,"[1]; Table 5.1, read-out: MAG IC50",> 50 µM
same,"Max concentration tested (% inhibition), MAGL",[1]; at 50 μM,(17.2%)
same,IC50,[2]; Table 5.1,30 µM
same,"Max concentration tested (% inhibition), DAGL",[2]; at 100 μM,(67.5%)
same,IC50,[4],2.2 µM
"Cc1c(C(=O)c2cccc3ccccc23)c2cccc3c2n1[C@H](CN1CCOCC1)CO3 [WIN-55,212-2]",inhibition of cell growth,[9],inhibition of cell growth
